Our source for the IC50 values is the COVID Moonshot data (paper PMC7615835).

Values joined by “and” are separate entries in the source; they are usually repeats but may differ in a detail not shown here. Identical values can stand only once.

The target in the assay is SARS-CoV-2 Main Protease (SARS-CoV-2) (UniProt P0DTD1).
With `CC(C)(O)c1ccc(N(C(=O)c2cocn2)C(C(=O)NCCc2cccc(F)c2)c2cccnc2)cc1` (centres undefined), the IC50 is 26.5 µM. Consider `Cc1cc(C(=O)CCl)c(C)n1CC1COc2ccccc2O1` (centres undefined), for which the IC50 is 2.82 µM.

As to `Cc1cccn2ncc(NC(=O)C3CNC(=O)c4ccc(Cl)cc43)c12` (centres undefined), the IC50 amounted to 2.4 µM. This IC50 and that of the molecule before are within 1.5-fold of each other. In turn, `O=C(Cc1ccc(Cl)c(Cl)c1)Nc1cncc2ccncc12` came in with an IC50 of 1.79 µM. With `O=C1NCC(C(=O)Nc2cnn3ccccc23)c2cc(Cl)ccc21` (centres undefined), the half-inhibitory concentration (IC50) worked out at 7.09 µM.

As to `CC(C)(O)c1ccc2cncc(NC(=O)C3CN(S(=O)(=O)CC4(C#N)CC4)Cc4ccc(Cl)cc43)c2c1` (centres undefined), the IC50 worked out at 1.14 µM. Turning to `N#Cc1ccc(CC(=O)Nc2cncc3ccccc23)cc1`, the IC50 is over 99.5 µM. The molecule `Cc1ccncc1N1CCN(c2cccc(Cl)c2)C1=O` came in with an IC50 of 81.7 µM. With `CC(=O)c1ccc(N(C(=O)c2ccco2)C(C(=O)NCCc2cccc(F)c2)c2cccnc2)cc1` (centres undefined), the IC50 was 56.3 µM. As for `NC(=O)CN1CCCN(C(=O)CCSc2ccc(F)cc2)CC1`, the IC50 was over 99.5 µM. Consider `CCCOc1c(Cl)cc(C(=O)N2CCC(C3CCNC3)CC2)cc1OCC` (centres undefined), for which the IC50 was over 99.5 µM. In turn, `O=C(Cc1cc(Cl)cc(Nc2ncc(F)cc2Br)c1)Nc1cncc2ccccc12` gave a concentration for half-maximal inhibition (IC50) of 1.84 µM. Under `O=C(Cc1cc(Cl)cc(N2CCN(C(=O)OCc3ccccc3)CC2)c1)Nc1cncc2ccccc12` stands 2.23 µM; under `O=C(NCCc1cccc(F)c1)C(c1cccnc1)N(C(=O)c1cocn1)c1ccc(N2CCCC2=O)cc1` (centres undefined), 76.6 µM. In turn, `O=C(Cc1cc(Cl)cc(Nc2ccc(I)cc2)c1)Nc1cncc2ccccc12` gave an IC50 of 1.84 µM.

With `Cc1nc(C)c(S(=O)(=O)NCC2CCCC3CC23)s1` (centres undefined), the IC50 was over 99.5 µM. `O=C(CN1CC(C(=O)Nc2cncc3cc(F)ccc23)c2cc(Cl)ccc2C1=O)NCC1CC1` (centres undefined) came in with an IC50 of 0.216 µM. Consider `COC[C@]1(C(=O)Nc2cncc3ccccc23)CCOc2cc(Cl)c(Cl)cc21` (stereo in doubt), for which the IC50 was 2.38 µM and 4.36 µM. For `O=C(Nc1cncc2ccccc12)C1CCOc2c1ccc(Cl)c2Cl` (centres undefined), the IC50 is 3.31 µM. The molecule `O=C(Cc1cc(Cl)cc(NCc2cccc(Br)c2)c1)Nc1cncc2ccccc12` gave an IC50 of 1.48 µM. Under `O=C(Cc1cc(Cl)cc(Nc2ccc3c(c2)OC(F)(F)O3)c1)Nc1cncc2ccccc12` stands 2.07 µM; under `COC(OC)C(=O)N1CCN(Cc2cccc(Cl)c2)CC1`, 93.9 µM and 94.3 µM.

Take `O=C(Cc1cc(Cl)cc(Nc2c(F)cccc2Br)c1)Nc1cncc2ccccc12`: the IC50 was 3.39 µM. As to `CC(C)(C)c1ccc(N(C(=O)c2ccns2)C(C(=O)NCCc2cccc(F)c2)c2cccnc2)cc1` (centres undefined), the IC50 stood at 51.1 µM.

Regarding `C=CC(=O)N(c1ccc(C(C)(C)C)cc1)C(C(=O)NCCSC)c1cccnc1` (centres undefined), the IC50 came to 20.2 µM. `O=S(=O)(Nc1ccccc1)c1cc2c(cc1OCc1ccccc1)OCO2`: the half-inhibitory concentration (IC50) was determined as 72.8 µM. This IC50 lies about 3.6-fold higher than the previous one. As to `COc1ccc(-c2cc(COc3cc(Cl)cc(CC(=O)Nc4cnccc4C)c3)on2)cc1`, the IC50 was 62.7 µM and 81.5 µM. `Cc1ccccc1C(C)N(C(=O)c1cnc[nH]1)C(C(=O)NCCc1cccc(F)c1)c1cccnc1` (centres undefined) registered an IC50 of over 99 µM.

`C[C@H](C/C=C/C(C)(C)O)[C@H]1CC[C@@]2(C)[C@@H]3C=C[C@]45OC(O)[C@@]3(CC[C@]12C)[C@@H]4CC[C@H](O[C@@H]1O[C@H](CO)[C@@H](O)[C@H](O)[C@H]1O)C5(C)C` (stereo in doubt) returned an IC50 of over 99.5 µM. `COC(=O)C1CC1C(=O)N1CCC(c2c[nH]c3ncccc23)CC1` (centres undefined) gave an IC50 of over 99.5 µM.

`O=C(Cc1cc(Cl)cc(N2CCN(c3ccc(Br)cn3)CC2)c1)Nc1cncc2ccccc12`: the IC50 worked out at 3.17 µM. In the case of `O=C(Cc1cc(Cl)cc(Nc2ncccc2OCc2ccccc2)c1)Nc1cncc2ccccc12`, the IC50 was 2 µM.

Regarding `O=C(Cc1cc(Cl)cc(NC2CCN(Cc3ccccc3)CC2)c1)Nc1cncc2ccccc12`, the IC50 came out at 5.93 µM. `O=C(Cc1cc(Cl)cc(Nc2cc(Cl)c(F)c(Cl)c2)c1)Nc1cncc2ccccc12` registered an IC50 of 1.85 µM. This IC50 lies about 3.2-fold lower than the previous one. With `O=C(Cc1cc(Cl)cc(N[C@H](c2ccccc2)[C@@H](O)c2ccccc2)c1)Nc1cncc2ccccc12` (stereo in doubt), the IC50 came to 2.24 µM. Molecule `CS(=O)(=O)c1ccc(N2CCNCC2)cc1` returned an IC50 of over 99.5 µM. For the molecule `CC(C)(C)c1ccc(N(C(=O)c2cocn2)C(C(=O)N2CCC(c3cccc(F)c3)CC2)c2cccnc2)cc1` (centres undefined), the IC50 was found to be 9.46 µM. `O=C(Nc1cncc2ccccc12)C1CCOc2c(OCc3ccccc3)cc(Cl)cc21` (centres undefined) returned a half-maximal inhibitory concentration (IC50) of 36.5 µM. Compared with the last molecule, the IC50 is about 3.9-fold higher. Under `COC(C)(C)CS(=O)(=O)N1Cc2ccc(Cl)cc2C(C(=O)Nc2cncc3ccccc23)C1` (centres undefined) stands 0.2 µM. `C=CC(=O)N(Cc1cccc(Cl)c1)C(C(=O)NCCc1cccc(F)c1)c1cnccc1C` (centres undefined): the IC50 was over 99.5 µM. Under `O=C(Cc1cc(Cl)cc(Nc2ccc(-c3ccccn3)cc2)c1)Nc1cncc2ccccc12` stands 1.67 µM; under `Cn1c(=O)c2cc(C(=O)N(c3ccc(C(C)(C)C)cc3)C(C(=O)NCCc3cccc(F)c3)c3cccnc3)n(C)c2n(C)c1=O` (centres undefined), over 99.5 µM; under `Cc1ccncc1NC(=O)N(CCC1CCCCC1)c1cc(Cl)cc(OC(C)C)c1`, 24.6 µM. `COCc1nc(C)c(C(=O)N(c2ccc(C(C)(C)C)cc2)C(C(=O)NCCc2cccc(F)c2)c2cccnc2)s1` (centres undefined) displayed an IC50 of over 99.5 µM. In the case of `O=C(Cc1cc(Cl)cc(Nc2cccc(F)c2[N+](=O)[O-])c1)Nc1cncc2ccccc12`, the IC50 is 1.99 µM.

In turn, `Cc1ccc2ccccc2c1Nc1cc(Cl)cc(CC(=O)Nc2cncc3ccccc23)c1` returned an IC50 of 2.52 µM. Consider `O=C(Cn1nnc2ccccc21)N(CC1CCOC1)c1ccc(C2CCNCC2)cc1` (centres undefined), for which the concentration for half-maximal inhibition (IC50) was over 99.5 µM. The molecule `COc1cc(C(=O)N(c2ccc(C(C)(C)C)cc2)C(C(=O)NCCc2cccc(F)c2)c2cccnc2)sn1` (centres undefined) returned an IC50 of over 99.5 µM. In turn, `CN(Cc1cccc2ccccc12)c1cc(Cl)cc(CC(=O)Nc2cncc3ccccc23)c1` registered an IC50 of 8.79 µM. As for `Cn1cnnc1-c1cccc(NS(=O)(=O)c2c(Cl)nc3sccn23)c1`, the IC50 is over 99.5 µM.

On to `Cn1c(NCc2cn3ccnc3s2)nc2ccccc21`, for which the IC50 is over 99.5 µM. Under `CC(C)NC(=O)CN1CC(C(=O)Nc2cncc3cc(S(C)(=O)=O)ccc23)c2cc(Cl)ccc2C1=O` (centres undefined) stands 0.332 µM; under `CN1CCCC(N(C(=O)c2cocn2)C(C(=O)NCCc2cccc(F)c2)c2cccnc2)C1` (centres undefined), over 99.5 µM; under `Cc1cc(Nc2cc(Cl)cc(CC(=O)Nc3cncc4ccccc34)c2)ncc1I`, 2.35 µM. `O=C(Cc1cc(Cl)cc(Nc2cccc(Cl)c2Br)c1)Nc1cncc2ccccc12` came in with a concentration for half-maximal inhibition (IC50) of 1.94 µM. As to `CC(=O)N1CCN(CC(=O)Nc2cncc3ccccc23)CC1`, the IC50 was > 99.5 µM and 51.7 µM. `Cn1nc(C(=O)NC(C)(C(=O)Nc2cncc3ccccc23)c2ccc(Cl)c(Cl)c2)cc1C#N` (centres undefined): the half-maximal inhibitory concentration (IC50) was 7.58 µM and 14.1 µM. On to `O=C(NCCc1cccc(F)c1)C(c1cccnc1)N(C(=O)c1cocn1)c1cn(Cc2ccccc2)cn1` (centres undefined), for which the IC50 was determined as 27.3 µM.

Molecule `CC(C)(C)c1ccc(N(C(=O)c2cocn2)C(C(=O)NCC2CCOC2)c2cccnc2)cc1` (centres undefined) yielded an IC50 of 5.42 µM.

`O=C(Nc1ccc2ccccc2c1)[C@@H]1CN(C(=O)CCl)CCN1S(=O)(=O)c1ccsc1` (stereo in doubt) gave an IC50 of 0.523 µM. Under `Cn1cncc1CN(C(=O)CC1(C(=O)Nc2cncc3ccccc23)CCOc2ccc(Cl)cc21)C1CC1` (centres undefined) stands 6.1 µM. Under `CCN1CCN(c2ccc(Nc3cc(Cl)cc(CC(=O)Nc4cncc5ccccc45)c3)cc2)CC1` stands 4.3 µM; under `O=C(NCCc1cccc(F)c1)C(c1cccnc1)N(C(=O)c1cocn1)[C@H]1C[C@H](Oc2ccccc2)C1` (some centres undefined), over 99.5 µM; under `CC(C)(C)c1ccc(N(C(=O)c2cscn2)C(C(=O)NCCc2cccc(F)c2)c2cccnc2)cc1` (centres undefined), 0.891 µM. As for `Cc1ccncc1NC(=O)Cc1cc(Cl)cc(S(N)(=O)=O)c1`, the IC50 is 14.6 µM. Under `O=c1[nH]c(-c2nnc[nH]2)nc2cc(-c3ccccc3Cl)sc12` stands over 99.5 µM; under `CC(C)=CCC[C@@](C)(O)[C@H]1CC[C@]2(C)[C@@H]1[C@H](O)C[C@@H]1[C@@]3(C)CC[C@H](O[C@@H]4O[C@H](CO)[C@@H](O)[C@H](O)[C@H]4O)C(C)(C)[C@@H]3CC[C@]12C` (stereo in doubt), over 99.5 µM; under `O=C1C(=O)N(Cc2ccc(Br)cc2)c2ccccc21`, over 198 µM. For the molecule `NC(=O)C1Cc2nc[nH]c2CN1C(=O)CC1(C(=O)Nc2cncc3ccccc23)CCOc2ccc(Cl)cc21` (centres undefined), the concentration for half-maximal inhibition (IC50) is 9.28 µM.

Take `O=C(Cc1cc(Cl)cc(Nc2ccc(N3CCOCC3=O)cc2)c1)Nc1cncc2ccccc12`: the 50% inhibitory concentration (IC50) stood at 1.99 µM. As for `C=CC(=O)N(c1ccc(C(C)(C)C)cc1)C(C(=O)NCCOC)c1cccnc1` (centres undefined), the 50% inhibitory concentration (IC50) amounted to 55.8 µM.

`Cc1cc(C(=O)N2CCC(C3CCNC3)CC2)cc(C)c1OC(F)F` (centres undefined): the IC50 was over 99.5 µM. Molecule `CC(C)(C)c1ccc(N(C(=O)c2nc(=O)[nH][nH]2)C(C(=O)NCCc2cccc(F)c2)c2cccnc2)cc1` (centres undefined) returned a concentration for half-maximal inhibition (IC50) of over 99.5 µM. In turn, `O=C(Nc1cnc2ccccn12)C1CCOc2ccc(Cl)cc21` (centres undefined) came in with an IC50 of 3.26 µM. As for `CCC(C)(C)CCN(Cc1ccsc1)C(=O)Cn1nnc2ccccc21`, the IC50 came to 78.5 µM. In the case of `O=C(Nc1cncc2ccncc12)[C@@H]1CCOc2cc(F)c(Cl)cc21` (stereo in doubt), the IC50 is 0.397 µM and 0.849 µM. Under `CNC(=O)CN1CC(C(=O)Nc2cncc3cc(NS(C)(=O)=O)ccc23)c2cc(Cl)ccc2C1=O` (centres undefined) stands < 0.05 µM and 0.0442 µM. Take `CCOC(=O)CNC(=O)C(c1cccnc1)N(C(=O)c1cocn1)c1ccc(C(C)(C)C)cc1` (centres undefined): the IC50 came to 9.53 µM. As to `Cc1ccncc1NC(=O)N(Cc1ccccc1)c1cccc(Cl)c1`, the IC50 turned out to be 22.9 µM. This IC50 is about 2.4-fold higher than that of the molecule before. Molecule `O=C(NCC(c1ccccc1)c1c[nH]c2ccccc12)c1cnccn1` (centres undefined) registered an IC50 of over 99.5 µM.

Regarding `O=C(NCCc1cccc(F)c1)C(c1cccnc1)N(C(=O)c1cocn1)c1ccc(Cn2cccn2)cc1` (centres undefined), the IC50 is 8.34 µM. `Cn1nncc1C(=O)N1Cc2ccc(Cl)cc2C(C(=O)Nc2cncc3ccccc23)C1` (centres undefined) displayed an IC50 of 0.397 µM. `O=C(NCCc1cccc(F)c1)C(c1cccnc1)N(C(=O)c1cocn1)c1ccc2c(c1)CCC(=O)N2CC(F)F` (centres undefined) had an IC50 of 24.5 µM.

With `COc1cc(N(C(=O)c2cnc[nH]2)C(C(=O)NCCc2cccc(F)c2)c2cccnc2)ccc1S(=O)(=O)N(C)C` (centres undefined), the half-inhibitory concentration (IC50) is over 99 µM.

By IC50 is commonly meant the midpoint of a concentration-inhibition curve.
